Experimental data as given in patent US20100317528A1, “HERBICIDE CONTAINING BENZOYLPYRAZOLE COMPOUND” (ISHIHARA SANGYO KAISHA, LTD., priority 2006, published 2010).

Assays:
Format in all cases: in vivo
[1] = test system: barnyardgrass (Echinochloa crus-galli L.); experiment: Test Example 1: foliar treatment, upland pot test, barnyardgrass; details: 31 g/ha active ingredient, observed 17th to 25th day after application; for inhibition at 31 g/ha: Echinochloa crus-galli, read-out: Growth inhibition rate (%) Barnyardgrass
Source text: (§1) Upland field soil was put into a 1/170,000 hectare pot, and seeds of various plants were sown. When the respective plants reached predetermined leaf stage ((1) barnyardgrass (Echinochloa crus-galli L.): 1.0 to 3.0 leaf stage, (2) crabgrass (Digitaria sanguinalis L.): 1.0 to 3.0 leaf stage, (3) green foxtail (Setaria viridis L.): 1.0 to 3.0 leaf stage, (4) redroot pigweed (Amaranthus retroflexus L.): cotyledon stage to 2.0 leaf stage, (5) prickly sida (Sida spinosa L.): cotyledon stage to 1.0 leaf stage, (6) velvetleaf (Abutilon theophrasti MEDIC.): 0.1 to 1.5 leaf stage, (7) rice (Oryza sativa L.): 1.0 to 3.0 leaf stage, (8) wheat (Triticum spp.): 1.7 to 3.4 leaf stage, (9) corn (Zea mays L.): 2.0 to 3.5 leaf stage, (10) soybean (Glycine max Merr.): primary leaf stage to 0.4 leaf stage), wettable powders or emulsifiable concentrates of the compounds of the above formula (I) prepared in accordance with a conventional preparation method, were weighed so that the active ingredients became the prescribed amounts, and diluted with water in an amount corresponding to 500 liter per 1 hectare (containing 0.1 vol % of “KUSARINOH”, manufactured by NIHON NOHYAKU CO., LTD. as an agricultural spreader). The spray solutions thus prepared were applied for foliar treatment by a small sprayer.
(§2) On the 17th to 25th day after application, the state of growth of the respective plants was visually observed, and the herbicidal effect was evaluated by a growth inhibition rate (%) of 0 (equivalent to the non-treated area) to 100% (complete kill).

[2] = test system: crabgrass (Digitaria sanguinalis L.); experiment: Test Example 1: foliar treatment, upland pot test, crabgrass; details: 31 g/ha active ingredient, observed 17th to 25th day after application; for inhibition at 31 g/ha: Digitaria sanguinalis, read-out: Growth inhibition rate (%) Crabgrass
Source text: as §1, §2

[3] = test system: green foxtail (Setaria viridis L.); experiment: Test Example 1: foliar treatment, upland pot test, green foxtail; details: 31 g/ha active ingredient, observed 17th to 25th day after application; for inhibition at 31 g/ha: Setaria viridis, read-out: Growth inhibition rate (%) Green foxtail
Source text: as §1, §2

[4] = test system: redroot pigweed (Amaranthus retroflexus L.); experiment: Test Example 1: foliar treatment, upland pot test, redroot pigweed; details: 31 g/ha active ingredient, observed 17th to 25th day after application; for inhibition at 31 g/ha: Amaranthus retroflexus, read-out: Growth inhibition rate (%) Redroot pigweed
Source text: as §1, §2

[5] = test system: prickly sida (Sida spinosa L.); experiment: Test Example 1: foliar treatment, upland pot test, prickly sida; details: 31 g/ha active ingredient, observed 17th to 25th day after application; for inhibition at 31 g/ha: Sida spinosa, read-out: Growth inhibition rate (%) Prickly sida
Source text: as §1, §2

[6] = test system: velvetleaf (Abutilon theophrasti MEDIC.); experiment: Test Example 1: foliar treatment, upland pot test, velvetleaf; details: 31 g/ha active ingredient, observed 17th to 25th day after application; for inhibition at 31 g/ha: Abutilon theophrasti, read-out: Growth inhibition rate (%) Velvetleaf
Source text: as §1, §2

rice (Oryza sativa L.) [7] = experiment: Test Example 1: foliar treatment, upland pot test, rice; details: 31 g/ha active ingredient, observed 17th to 25th day after application; for inhibition at 31 g/ha: Oryza sativa, read-out: Growth inhibition rate (%) Rice
Source text: as §1, §2

wheat (Triticum spp.) [8] = experiment: Test Example 1: foliar treatment, upland pot test, wheat; details: 31 g/ha active ingredient, observed 17th to 25th day after application; for inhibition at 31 g/ha: Triticum, read-out: Growth inhibition rate (%) Wheat
Source text: as §1, §2

corn (Zea mays L.) [9] = experiment: Test Example 1: foliar treatment, upland pot test, corn; details: 31 g/ha active ingredient, observed 17th to 25th day after application; for inhibition at 31 g/ha: Zea mays, read-out: Growth inhibition rate (%) Corn
Source text: as §1, §2

[10] = test system: barnyardgrass (Echinochloa crus-galli L.); experiment: Test Example 2: soil application on the day after sowing, barnyardgrass; details: 250 g/ha active ingredient, observed 19th to 28th day after application; for inhibition at 250 g/ha: Echinochloa crus-galli, read-out: Growth inhibition rate (%) Barnyardgrass
Source text: (§3) Upland field soil was put into a 1/170,000 hectare pot, and seeds of various plants barnyardgrass (Echinochloa crus-galli L.), crabgrass (Digitaria sanquinalis L.), green foxtail (Setaria viridis L.), redroot pigweed (Amaranthus retroflexus L.), prickly sida (Sida spinosa L.), velvetleaf (Abutilon theophrasti MEDIC.), rice (Oryza sativa L.), wheat (Triticum spp.), corn (Zea mays L.) and soybean (Glycine max Merr.)) were sown. On the day after sowing, wettable powders or emulsifiable concentrates of the compounds of the above formula (I) prepared in accordance with a conventional preparation method, were weighed so that the active ingredients became the prescribed amounts, and diluted with water in an amount corresponding to 500 liter per 1 hectare, followed by soil application with a small sprayer.
(§4) On the 19th to 28th day after the application, the state of growth of the respective plants was visually observed, and the herbicidal effect was evaluated by a growth inhibition rate (%) of from 0 (equivalent to the non-treated area) to 100% (complete kill).

[11] = test system: crabgrass (Digitaria sanquinalis L.); experiment: Test Example 2: soil application on the day after sowing, crabgrass; details: 250 g/ha active ingredient, observed 19th to 28th day after application; for inhibition at 250 g/ha: Digitaria, read-out: Growth inhibition rate (%) Crabgrass
Source text: as §3, §4

[12] = test system: green foxtail (Setaria viridis L.); experiment: Test Example 2: soil application on the day after sowing, green foxtail; details: 250 g/ha active ingredient, observed 19th to 28th day after application; for inhibition at 250 g/ha: Setaria viridis, read-out: Growth inhibition rate (%) Green foxtail
Source text: as §3, §4

[13] = test system: redroot pigweed (Amaranthus retroflexus L.); experiment: Test Example 2: soil application on the day after sowing, redroot pigweed; details: 250 g/ha active ingredient, observed 19th to 28th day after application; for inhibition at 250 g/ha: Amaranthus retroflexus, read-out: Growth inhibition rate (%) Redroot pigweed
Source text: as §3, §4

[14] = test system: prickly sida (Sida spinosa L.); experiment: Test Example 2: soil application on the day after sowing, prickly sida; details: 250 g/ha active ingredient, observed 19th to 28th day after application; for inhibition at 250 g/ha: Sida spinosa, read-out: Growth inhibition rate (%) Prickly sida
Source text: as §3, §4

[15] = test system: velvetleaf (Abutilon theophrasti MEDIC.); experiment: Test Example 2: soil application on the day after sowing, velvetleaf; details: 250 g/ha active ingredient, observed 19th to 28th day after application; for inhibition at 250 g/ha: Abutilon theophrasti, read-out: Growth inhibition rate (%) Velvetleaf
Source text: as §3, §4

rice (Oryza sativa L.) [16] = experiment: Test Example 2: soil application on the day after sowing, rice; details: 250 g/ha active ingredient, observed 19th to 28th day after application; for inhibition at 250 g/ha: Oryza sativa, read-out: Growth inhibition rate (%) Rice
Source text: as §3, §4

wheat (Triticum spp.) [17] = experiment: Test Example 2: soil application on the day after sowing, wheat; details: 250 g/ha active ingredient, observed 19th to 28th day after application; for inhibition at 250 g/ha: Triticum, read-out: Growth inhibition rate (%) Wheat
Source text: as §3, §4

corn (Zea mays L.) [18] = experiment: Test Example 2: soil application on the day after sowing, corn; details: 250 g/ha active ingredient, observed 19th to 28th day after application; for inhibition at 250 g/ha: Zea mays, read-out: Growth inhibition rate (%) Corn
Source text: as §3, §4

[19] = test system: soybean (Glycine max Merr.); experiment: Test Example 2: soil application on the day after sowing, soybean; details: 250 g/ha active ingredient, observed 19th to 28th day after application; for inhibition at 250 g/ha: Glycine max, read-out: Growth inhibition rate (%) Soybean
Source text: as §3, §4

[20] = test system: soybean (Glycine max Merr.); experiment: Test Example 1: foliar treatment, upland pot test, soybean; details: 31 g/ha active ingredient, observed 17th to 25th day after application
Source text: as §1, §2

Structure (SMILES) | inhibition at 31 g/ha [1] [%] | inhibition at 31 g/ha [2] [%] | inhibition at 31 g/ha [3] [%] | inhibition at 31 g/ha [4] [%] | inhibition at 31 g/ha [5] [%] | inhibition at 31 g/ha [6] [%] | inhibition at 31 g/ha (rice (Oryza sativa L.) [7]) [%] | inhibition at 31 g/ha (wheat (Triticum spp.) [8]) [%] | inhibition at 31 g/ha (corn (Zea mays L.) [9]) [%] | inhibition at 250 g/ha [10] [%] | inhibition at 250 g/ha [11] [%] | inhibition at 250 g/ha [12] [%] | inhibition at 250 g/ha [13] [%] | inhibition at 250 g/ha [14] [%] | inhibition at 250 g/ha [15] [%] | inhibition at 250 g/ha (rice (Oryza sativa L.) [16]) [%] | inhibition at 250 g/ha (wheat (Triticum spp.) [17]) [%] | inhibition at 250 g/ha (corn (Zea mays L.) [18]) [%] | inhibition at 250 g/ha [19] [%] | Growth inhibition rate (%) Barnyardgrass [1] [%] | other results
COC(=O)c1c(S(C)(=O)=O)ccc(C(=O)c2cnn(C)c2O)c1C [compound 126] | 95 | 80 | 100 | 100 | 90 | 100 | 100 | 0 | 5 | 90 | 100 | 70 | 100 | 70 | 70 | 95 | 10 | 0 | 60 | – | –
CCn1ncc(C(=O)c2ccc(S(C)(=O)=O)c(C(=O)OC)c2C)c1O [compound 127] | 90 | 90 | 90 | 100 | 80 | 100 | 90 | 0 | 40 | 85 | 100 | 100 | 100 | 60 | 70 | 70 | 10 | 0 | 50 | – | –
CCOc1c(S(C)(=O)=O)ccc(C(=O)c2cnn(C)c2O)c1C [compound 144] | 98 | 95 | 100 | 100 | 100 | 100 | 75 | 20 | 10 | 80 | 100 | 70 | 75 | 50 | 50 | 70 | 0 | 0 | 0 | – | –
Cc1c(C(=O)c2cnn(C)c2O)ccc(S(C)(=O)=O)c1OC(C)C [compound 145] | – | – | – | – | – | – | – | – | – | – | – | – | – | – | – | – | – | – | – | 70 | Growth inhibition rate (%) Crabgrass [2]: 60%; Growth inhibition rate (%) Green foxtail [3]: 75%; Growth inhibition rate (%) Redroot pigweed [4]: 90%; Growth inhibition rate (%) Velvetleaf [6]: 85%; Growth inhibition rate (%) Rice (rice (Oryza sativa L.) [7]): 60%; Growth inhibition rate (%) Wheat (wheat (Triticum spp.) [8]): 0%; Growth inhibition rate (%) Corn (corn (Zea mays L.) [9]): 0%; Growth inhibition rate (%) Soybean [20]: 70%; Growth inhibition rate (%) Barnyardgrass [10]: 60%; Growth inhibition rate (%) Crabgrass [11]: 90%; Growth inhibition rate (%) Green foxtail [12]: 30%; Growth inhibition rate (%) Redroot pigweed [13]: 60%; Growth inhibition rate (%) Prickly sida [14]: 60%; Growth inhibition rate (%) Velvetleaf [15]: 40%; Growth inhibition rate (%) Rice (rice (Oryza sativa L.) [16]): 0%; Growth inhibition rate (%) Wheat (wheat (Triticum spp.) [17]): 0%; Growth inhibition rate (%) Corn (corn (Zea mays L.) [18]): 0%; Growth inhibition rate (%) Soybean [19]: 0%
COC(=O)Cc1c(S(C)(=O)=O)ccc(C(=O)c2cnn(C)c2O)c1C [compound 156] | – | – | – | – | – | – | – | – | – | – | – | – | – | – | – | – | – | – | – | 75 | Growth inhibition rate (%) Crabgrass [2]: 90%; Growth inhibition rate (%) Green foxtail [3]: 70%; Growth inhibition rate (%) Redroot pigweed [4]: 70%; Growth inhibition rate (%) Prickly sida [5]: 60%; Growth inhibition rate (%) Velvetleaf [6]: 80%; Growth inhibition rate (%) Rice (rice (Oryza sativa L.) [7]): 70%; Growth inhibition rate (%) Wheat (wheat (Triticum spp.) [8]): 0%; Growth inhibition rate (%) Corn (corn (Zea mays L.) [9]): 0%; Growth inhibition rate (%) Barnyardgrass [10]: 60%; Growth inhibition rate (%) Crabgrass [11]: 95%; Growth inhibition rate (%) Green foxtail [12]: 50%; Growth inhibition rate (%) Redroot pigweed [13]: 100%; Growth inhibition rate (%) Prickly sida [14]: 80%; Growth inhibition rate (%) Velvetleaf [15]: 80%; Growth inhibition rate (%) Rice (rice (Oryza sativa L.) [16]): 60%; Growth inhibition rate (%) Wheat (wheat (Triticum spp.) [17]): 0%; Growth inhibition rate (%) Corn (corn (Zea mays L.) [18]): 0%; Growth inhibition rate (%) Soybean [19]: 0%
COCCOc1c(S(C)(=O)=O)ccc(C(=O)c2c(C)nn(C(C)C)c2O)c1C [compound 260] | – | – | – | – | – | – | – | – | – | – | – | – | – | – | – | – | – | – | – | 95 | Growth inhibition rate (%) Crabgrass [2]: 80%; Growth inhibition rate (%) Green foxtail [3]: 70%; Growth inhibition rate (%) Redroot pigweed [4]: 90%; Growth inhibition rate (%) Prickly sida [5]: 30%; Growth inhibition rate (%) Velvetleaf [6]: 70%; Growth inhibition rate (%) Rice (rice (Oryza sativa L.) [7]): 70%; Growth inhibition rate (%) Wheat (wheat (Triticum spp.) [8]): 0%; Growth inhibition rate (%) Corn (corn (Zea mays L.) [9]): 0%; Growth inhibition rate (%) Soybean [20]: 40%; Growth inhibition rate (%) Barnyardgrass [10]: 100%; Growth inhibition rate (%) Crabgrass [11]: 100%; Growth inhibition rate (%) Green foxtail [12]: 100%; Growth inhibition rate (%) Redroot pigweed [13]: 100%; Growth inhibition rate (%) Prickly sida [14]: 60%; Growth inhibition rate (%) Velvetleaf [15]: 70%; Growth inhibition rate (%) Rice (rice (Oryza sativa L.) [16]): 100%; Growth inhibition rate (%) Wheat (wheat (Triticum spp.) [17]): 20%; Growth inhibition rate (%) Corn (corn (Zea mays L.) [18]): 60%
